Assay results published in patent US8852876B2, “Label free biosensors and cells” (Corning Incorporated, priority 2008, dated 2014).

Legend:
[1] = system: protease activated receptors PAR1 and PAR2; format: cell-based, human; details: for Effect of pretreatment on trypsin-mediated DMR signal: 100 or 200 nM trypsin, modulators 10 μM; for Effect of pretreatment on DMR induced by thrombin or trypsin: 40 unit/ml thrombin, 200 nM trypsin, αCD up to 8 mM
Description: (§1) Human epidermoid carcinoma A431 cells (American Type Cell Culture) were grown in Dulbecco's modified Eagle's medium (DMEM) supplemented with 10% fetal bovine serum (FBS), 4.5 g/liter glucose, 2 mM glutamine, and antibiotics. ˜3-7.5×10^4 cells at passage 3 to 5 suspended in 200 μl the DMEM medium containing 10% FBS were placed in each well of a 96 well microplate, and were cultured at 37° C. under air/5% CO2 until ˜95% confluency was reached (˜2-4 days).
(§2) The compound or PAR agonist solutions were made in 1×HBSS in order to match the refractive index between the cell medium and compound solution, thus minimizing the unwanted effect of bulk index change due to the introduction of compound solution which can temporarily overwhelms any DMR signal as it occurs.

[2] = target: T1, protease activated receptors PAR1 and PAR2 (Homo sapiens, UniProt P25116); format: cell-based; details: 40 unit/ml thrombin; modulators 10 μM
T1 construct: A431 cells which endogenously express PAR1 and PAR2; endogenous in cells; host or cells: A431
T1 sequence (P25116 22-425): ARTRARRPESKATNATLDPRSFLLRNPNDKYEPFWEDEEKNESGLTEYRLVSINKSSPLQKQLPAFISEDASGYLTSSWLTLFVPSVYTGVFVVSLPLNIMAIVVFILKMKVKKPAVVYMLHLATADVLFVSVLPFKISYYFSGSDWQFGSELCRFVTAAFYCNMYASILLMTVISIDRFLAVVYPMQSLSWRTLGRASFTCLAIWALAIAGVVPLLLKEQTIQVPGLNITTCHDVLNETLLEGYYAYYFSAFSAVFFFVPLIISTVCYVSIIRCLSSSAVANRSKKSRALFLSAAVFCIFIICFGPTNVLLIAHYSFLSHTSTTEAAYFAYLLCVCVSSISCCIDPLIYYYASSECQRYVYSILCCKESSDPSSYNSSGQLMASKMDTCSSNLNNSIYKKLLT
Description: as §1, §2

[3] = system: EGF-induced response of quiescent A431 cells; experiment: Effect of compound pretreatment on EGF-induced DMR response; format: cell-based, human; details: for Effect of pretreatment on 32 nM EGF-induced response: quiescent A431 cells
Description: Both A431 and CHO-K1 cells were grown in Dulbecco's modified Eagle's medium (DMEM) supplemented with 10% fetal calf serum, 100 μg/ml penicillin, and 100 μg/ml streptomycin. For cell culture, certain numbers of cells (2×10^5 to 1×10^6), either A431 or CHO-K1, were suspended in […] medium were placed in each well of a 96 well Corning Epic Biosensor microplate, and were cultured at 37° C. in air/5% CO2 for certain time until the cell density reached ˜90% and above (unless specified). The resulted cells were termed as “profilerating” cells. The “quiescent” cells were obtained by culturing the profilerating cells of desired confluencies with a medium containing no or little (˜0.1% fetal bovine serum (FBS)) for at least 16 hours.
During the assays, the cells in 100 μl medium were subject to two 25 μl HBSS buffer containing 20 mM HEPES, pH 7.4, each separated by at least 15 minutes before 50 μl stimulus-containing solution was applied. During all these steps, a parallel angular interrogation system was used to monitor the real time kinetics of cellular responses. For compound effect studies, a modified protocol was used which starts with 50 μl medium, and subject to sequential treatment: 25 μl HBSS buffer twice (each separated by at least 15 minutes), 50 μl compound solution and finally 50 μl stimulus-containing solution.

[4] = system: protease activated receptors PAR1 and PAR2; experiment: Fluo-3 Ca2+ mobilization assay with PAR agonists; format: cell-based, human; details: for Effect of pretreatment on [Ca2+]i elevation mediated by trypsin or thrombin: cholesterol depletion, αCD up to 8 mM
Description: A431 at passage 3 to 5 were grown in Costar™ 96 well clear cell culture microplates until ˜95% confluency, washed twice and starved overnight with the DMEM only, washed with 1×HBSS (1× regular Hank's balanced salt solution, 20 mM HEPES buffer, pH 7.0) in the presence of 2.5 mM probenicid, and labeled in the same buffer containing 4 μM Fluo-3 for 1 hour at room temperature. The cells were then washed twice with buffer, maintained with 100 μl 1×HBSS containing 2.5 mM probenicid. The assay was initiated by transferring 50 μl PAR agonist solution to the cell plate, and calcium signal was recorded over 6 minutes with a 6 sec interval using HTS7000 BioAssay Reader (PerkinElmer Life Science, Boston, Mass.). The assays were carried out at room temperature in order to allow direct comparison with optical sensing data.

[5] = system: endogenous GPCRs in A431 cells; experiment: DMR optical biosensor profiling of GPCR agonists; format: cell-based, human; details: quiescent A431; first class = Gq-type, second = Gs-type, third = Gi-type, fourth = no significant DMR
Description: Human epidermoid carcinoma A431 cells (American Type Cell Culture) were grown in Dulbecco's modified Eagle's medium (DMEM) supplemented with 10% fetal bovine serum (FBS), 4.5 g/liter glucose, 2 mM glutamine, and antibiotics. ˜3-7.5×10^4 cells at passage 3 to 5 suspended in 200 μl the DMEM medium containing 10% FBS were placed in each well of a 96 well microplate. Similarly ˜1-2×10^4 cells in 50 μl the growth medium were placed in each well of a 384 well microplate. After cell seeding, the cells were cultured at 37° C. under air/5% CO2 until ˜95% confluency was reached (˜2-4 days).
A Corning® Epic™ angular interrogation system with transverse magnetic or p-polarized TM0 mode was used for all studies. Several extra actions were taken to minimize the unwanted effects. First, to minimize the bulk index changes when a compound solution is introduced, 1×HBSS buffer without any probenecid was used to dilute all the compounds, whereas the DMEM buffer only was used to starve the cells. Secondly, to facilitate the cell responses as well as to rapidly reach a steady state when the sensor plates having cells were placed in the system at room temperature, the cells were pre-starved with the DMEM buffer without any FBS for a prolonged period of time (typically 20±2 hours), and the quiescent cells were directly used for assays without any wash.
For kinetics measurements, the cultured cells (˜95% confluency) were starved for about 20 hours with DMEM alone at 37° C. under air/5% CO2. Afterwards, the sensor microplate containing cells was placed into the optical system, and the cell responses were recorded before and after addition of a solution at room temperature. […] All studies were carried out at room temperature with the lid of the microplate on except for a short period of time (˜seconds) when the solution was introduced, in order to minimize the effect of temperature fluctuation and evaporative cooling. The unit of the responses indicated herein was a change in pixel of the central position of the resonant band of each sensor as imaged by a CCD camera; 1 unit equals to ˜5.82×10^−4 refractive index changes, based on an experimental normalization protocol, which uses the concentration-dependent responses of both glycerol and dimethyl sulfoxide.
The panel of agonists were used individually to stimulate quiescent A431 cells. The dose-dependent and kinetic responses were recorded and analyzed. In a typical kinetic measurement, the angular shift of resonant lights of each sensor induced by an agonist is monitored in real time and plotted as a function of time. An increased signal (P-DMR) means an increase in the amount of bio-molecules within the sensing volume (˜120 nm); conversely, a decreased signal (N-DMR) means a decrease in the amount of bio-molecules within the sensing volume. The sensing volume, also known as penetration depth, is an intrinsic property of the coupled light within the waveguide film, which creates an evanescent wave extending into the cell layer and the medium.

quiescent A431 cells = experiment: H2O2-induced DMR (reactive oxygen species signaling, redox state); format: cell-based, human; details: for DMR signal: 4 mM H2O2; for Effect on cell responses mediated with 1 mM H2O2: src kinase modulators
Description: In this study, all optical responses were monitored with a wavelength interrogation system. The RWG biosensor is comprised of three major components for bioassay applications: an Epic™ sensor microplate, an RWG detector, and a liquid handling system. The sensor microplate consists of a glass bottom plate attached to a plastic holy plate of a given SBS format (e.g., 96-well or 384-well), which enables high throughput screening. In a 96 well Epic™ sensor microplate, each well contains one RWG sensor of approximately 3×3 mm^2. The RWG sensor consists of a thin film of dielectric material on the grating presenting glass substrate.
The wavelength interrogation detector system is centered on integrated fiber optics. A broadband light source, generated through a fiber optic and a collimating lens at nominally normal incidence through the bottom of the microplate, is used to illuminate a small region of the grating surface. A detection fiber for recording the reflected light is bundled with the illumination fiber. A series of 8 illumination/detection heads are arranged in a linear fashion, so that reflection spectra are collected from all 8 wells within the same column of a microplate at once. With the spatial-controlled movement, the whole plate is moving across the illumination/detection heads so that each sensor can be addressed multiple times, and each column be addressed in sequence. A series of spectra of the reflected lights are collected and used for analysis. Since this detection system measures the wavelength shift of the reflected lights induced by the cell response in response to stimulation, this approach is referred to the wavelength interrogation system.

## CN(C)CCCn1cc(C2=C(c3c[nH]c4ccccc34)C(=O)NC2=O)c2ccccc21 [GF 109203x]
[1]
  Effect of pretreatment on trypsin-mediated DMR signal: no obvious effect on both thrombin- and trypsin-mediated DMR signal
[2]
  Effect of pretreatment on thrombin-mediated DMR signal: no obvious effect on both thrombin- and trypsin-mediated DMR signal
[3]
  Effect of pretreatment on 32 nM EGF-induced response: partial attenuation on the response

## methyl-β-cyclodextrin [mβCD]
[1]
  Effect of pretreatment on DMR induced by thrombin or trypsin: a dose-dependent alteration of the optical signatures induced by thrombin or trypsin
[4]
  Effect of pretreatment on [Ca2+]i elevation mediated by trypsin or thrombin: a dose-dependent suppression of [Ca^2+]i elevation mediated by either trypsin or thrombin

## SFFLR-amide [PAR1-AP]
[5]
  Class of optical signature (DMR) induced by agonist: first class of optical signatures
[1]; interval about 1 hour
  Effect of preceding stimulation on trypsin-induced DMR signal: significantly suppresses but not completely eliminates the trypsin-induced DMR signal
[4]; interval 6 min, 200 nM trypsin
  Effect of preceding stimulation on trypsin-induced [Ca2+]i elevation: significantly attenuated but not completely eliminates the trypsin-induced [Ca^2+]i elevation
[4]; quiescent A431, Fluo-3
  Maximal [Ca2+]i elevation: 74.3±3.9%
[4]; thrombin 40 unit/ml first, interval 6 min
  [Ca2+]i elevation after preceding stimulation with thrombin: 32±4.3%

## OO [H2O2, hydrogen peroxide]
Quiescent A431 cells; 1 mM H2O2
  DMR signal (shift in incident angle): triggered significant mass redistribution within the sensing volume of the sensors
  PWHM of resonant peak of TM0 mode: slightly increased the PWHM of the resonant peak of TM0 mode
Quiescent A431 cells; high redox state cells
  DMR signal: a characteristic of cells undergoing apoptosis
Quiescent A431 cells; low redox state cells
  DMR signal: a typical DMR signal for the low redox state of cells
Quiescent A431 cells; H2O2 at or above 16 mM
  DMR signal and Live/Dead cell staining: the cells treated with high doses of H2O2 undergo apoptosis
Quiescent A431 cells; H2O2 at or below about 8 mM
  DMR signal (wavelength shift): a typical curve that consists of two major events: an initial peak and a prolonged increased mass signal

## OC[C@H]1O[C@@H]2O[C@H]3[C@H](O)[C@@H](O)[C@@H](O[C@H]4[C@H](O)[C@@H](O)[C@@H](O[C@H]5[C@H](O)[C@@H](O)[C@@H](O[C@H]6[C@H](O)[C@@H](O)[C@@H](O[C@H]7[C@H](O)[C@@H](O)[C@@H](O[C@H]1[C@H](O)[C@H]2O)O[C@@H]7CO)O[C@@H]6CO)O[C@@H]5CO)O[C@@H]4CO)O[C@@H]3CO [αCD, α-cyclodextrin]
[1]
  Effect of pretreatment on DMR induced by thrombin or trypsin: little effect on both agonist-induced DMR responses
[1]; high doses (>10 mM)
  Cell detachment: resulted in significant amounts of cells detached from the surface of the biosensors
[4]
  Effect of pretreatment on [Ca2+]i elevation mediated by trypsin or thrombin: had no effect on both trypsin and thrombin-induced responses

## C/C1=C/C(=O)O[C@@H]2C[C@@H](CC[C@H](C)/C=C\C=C\CC1)O[C@@](O)([C@@H]1CSC(=O)N1)C2 [latrunculin A]
[1]
  Effect of pretreatment on trypsin-mediated DMR signal: completely blocked either thrombin- or trypsin-mediated DMR signal
[2]
  Effect of pretreatment on thrombin-mediated DMR signal: completely blocked either thrombin- or trypsin-mediated DMR signal
[3]
  Effect of pretreatment on 32 nM EGF-induced response: totally abolished the N-DMR signal

## Cc1ccc(-c2nn(C(C)(C)C)c3ncnc(N)c23)cc1 [PP1]
Quiescent A431 cells
  Effect on cell responses mediated with 1 mM H2O2: significantly suppressed the H2O2-mediated cell responses
[3]; starved A431 cells, 8 nM EGF, 30-minute pretreatment, GH 0.5 ng/ml, PD98059 0.1 mM, PP1 1 μM, wortmannin 0.1 μM, DIP 50 μM
  Effect of pre-treatment on EGF-induced P-DMR and N-DMR signals: significantly reduced both the binding and DMR signals

## CC(C)(C)n1nc(-c2ccc(Cl)cc2)c2c(N)ncnc21 [PP2]
Quiescent A431 cells
  Effect on cell responses mediated with 1 mM H2O2: significantly suppressed the H2O2-mediated cell responses

## COC(=O)Nc1nc2ccc(C(=O)c3cccs3)cc2[nH]1 [nocodazole]
[1]
  Effect of pretreatment on trypsin-mediated DMR signal: neither a stabilizing polymeric F-actin agent phalloidin nor a microtubule disrupter nocodazole had significant effect
[2]
  Effect of pretreatment on thrombin-mediated DMR signal: neither a stabilizing polymeric F-actin agent phalloidin nor a microtubule disrupter nocodazole had significant effect
[3]
  Effect of pretreatment on 32 nM EGF-induced response: hardly any effect on the EGF-induced response

## Nc1ncnc2c1cnn2-c1ccccc1 [PP3]
Quiescent A431 cells
  Effect on cell responses mediated with 1 mM H2O2: did not affect the responses
